Data reported in ChEMBL document CHEMBL4270599, “Synthesis of a 3'-C-ethynyl-β-d-ribofuranose purine nucleoside library: Discovery of C7-deazapurine analogs as potent antiproliferative nucleosides” (Eur J Med Chem, 2018).

Columns and labels:
Type in all cases: functional
HCC 2998 [1] = assay: Growth inhibition of human HCC2998 cells assessed as cell growth at 10^-7 M incubated for 48 hrs by sulforhodamine B assay relative to control; conditions: HCC 2998, 48 h, read-out: Activity
CCRF-CEM = assay: Growth inhibition of human CCRF-CEM cells assessed as cell growth at 10^-8 M incubated for 48 hrs by sulforhodamine B assay relative to control; conditions: read-out: Activity
HT-29 = assay: Growth inhibition of human HT-29 cells assessed as cell growth at 10^-4 M incubated for 48 hrs by sulforhodamine B assay relative to control; conditions: HT-29, 48 h, read-out: Activity
NCI-H322M = assay: Cytotoxicity against human NCI-H322M cells after 48 hrs by SRB assay
SK-MEL-2 = assay: Growth inhibition of human SK-MEL-2 cells assessed as cell growth at 10^-7 M incubated for 48 hrs by sulforhodamine B assay relative to control; conditions: SK-MEL-2, 48 h, read-out: Activity
K562 [2] = assay: Growth inhibition of human K562 cells assessed as cell growth at 10^-5 M incubated for 48 hrs by sulforhodamine B assay relative to control; conditions: K562, 48 h, read-out: Activity
UO-31 [3] = assay: Growth inhibition of human UO31 cells assessed as cell growth at 10^-7 M incubated for 48 hrs by sulforhodamine B assay relative to control; conditions: UO-31, 48 h, read-out: Activity
ACHN = assay: Growth inhibition of human ACHN cells assessed as cell growth at 10^-6 M incubated for 48 hrs by sulforhodamine B assay relative to control; conditions: read-out: Activity
BT-549 = assay: Growth inhibition of human BT549 cells assessed as cell growth at 10^-8 M incubated for 48 hrs by sulforhodamine B assay relative to control; conditions: BT-549, 48 h, read-out: Activity
HCC 2998 [4] = assay: Cytotoxicity against human HCC2998 cells after 48 hrs by SRB assay; conditions: HCC 2998, 48 h
HCT-15 = assay: Cytotoxicity against human HCT15 cells after 48 hrs by SRB assay; conditions: HCT-15, 48 h
SR = assay: Growth inhibition of human SR cells assessed as cell growth at 10^-6 M incubated for 48 hrs by sulforhodamine B assay relative to control; conditions: read-out: Activity
NCI-H226 = assay: Cytotoxicity against human NCI-H226 cells after 48 hrs by SRB assay; conditions: NCI-H226, 48 h
UO-31 [5] = assay: Cytotoxicity against human UO31 cells after 48 hrs by SRB assay; conditions: UO-31, 48 h
SN12C = assay: Growth inhibition of human SN12C cells assessed as cell growth at 10^-8 M incubated for 48 hrs by sulforhodamine B assay relative to control; conditions: read-out: Activity
K562 [6] = assay: Cytotoxicity against human K562 cells after 48 hrs by SRB assay; conditions: K562, 48 h
MOLT-4 = assay: Growth inhibition of human MOLT4 cells assessed as cell growth at 10^-8 M incubated for 48 hrs by sulforhodamine B assay relative to control; conditions: MOLT-4, 48 h, read-out: Activity
K562 [7] = assay: Growth inhibition of human K562 cells assessed as cell growth at 10^-4 M incubated for 48 hrs by sulforhodamine B assay relative to control; conditions: K562, 48 h, read-out: Activity
T47D = assay: Growth inhibition of human T47D cells assessed as cell growth at 10^-7 M incubated for 48 hrs by sulforhodamine B assay relative to control; conditions: read-out: Activity
OVCAR-4 = assay: Cytotoxicity against human OVCAR4 cells after 48 hrs by SRB assay; conditions: OVCAR-4, 48 h
MCF7 = assay: Growth inhibition of human MCF7 cells assessed as cell growth at 10^-8 M incubated for 48 hrs by sulforhodamine B assay relative to control; conditions: MCF7, 48 h, read-out: Activity
MDA-MB-435 = assay: Growth inhibition of human MDA-MB-435 cells assessed as cell growth at 10^-5 M incubated for 48 hrs by sulforhodamine B assay relative to control; conditions: MDA-MB-435, 48 h, read-out: Activity
SK-MEL-28 = assay: Growth inhibition of human SK-MEL-28 cells assessed as cell growth at 10^-7 M incubated for 48 hrs by sulforhodamine B assay relative to control; conditions: SK-MEL-28, 48 h, read-out: Activity
786-0 = assay: Growth inhibition of human 786-0 cells assessed as cell growth at 10^-6 M incubated for 48 hrs by sulforhodamine B assay relative to control; conditions: 786-0, 48 h, read-out: Activity
SF-295 = assay: Growth inhibition of human SF295 cells assessed as cell growth at 10^-7 M incubated for 48 hrs by sulforhodamine B assay relative to control; conditions: SF-295, 48 h, read-out: Activity
[8] = read-out: pLC50 (the source's name) (converted)
[9] = read-out: LC50 (the source's name)

`C#C[C@@]1(O)[C@@H](CO)O[C@@H](n2cc(Cl)c3c(N)ncnc32)[C@@H]1O` gave a growth at 0.1 µM (HCC 2998 [1]) of 79 to 80%, a growth at 0.01 µM (CCRF-CEM) of 96 to 97% and a growth at 100 µM (HT-29) of 1%. The GI50 (NCI-H322M; read-out: GI50) was 0.206 to 0.334 µM, the TGI (NCI-H322M; read-out: TGI) was 2.12 to 4.63 µM and the CC50 (NCI-H322M; [8]) was greater than 100 µM. For the same compound, the growth at 0.1 µM (SK-MEL-2) was 47 to 66%, the growth at 10 µM (K562 [2]) was 5 to 7% and the growth at 0.1 µM (UO-31 [3]) was 61 to 69%. The growth at 1 µM (ACHN) was 7%, the growth at 0.01 µM (BT-549) was 88 to 95% and the GI50 (HCC 2998 [4]; read-out: GI50) was 0.182 to 0.191 µM. For the same compound, the CC50 (HCC 2998 [4]; [9]) was greater than 100 µM, the TGI (HCC 2998 [4]; read-out: TGI) was 0.501 to 0.565 µM and the GI50 (HCT-15; read-out: GI50) was 0.134 to 0.152 µM. For the same compound, the TGI (HCT-15; read-out: TGI) was greater than 100 µM, the CC50 (HCT-15; [8]) was greater than 100 µM and the TGI (HCT-15; read-out: pTGI (converted)) was greater than 100 µM. The growth at 1 µM (SR) was 5 to 6%, the GI50 (NCI-H226; read-out: GI50) was 0.308 to 0.837 µM and the CC50 (NCI-H226; [9]) was greater than 100 µM. For the same compound, the TGI (NCI-H226; read-out: TGI) was 0.901 to 100 µM, the GI50 (UO-31 [5]; read-out: GI50) was 0.153 to 0.173 µM and the TGI (UO-31 [5]; read-out: TGI) was 0.472 to 1.78 µM. It also gave a CC50 (UO-31 [5]; [8]) greater than 100 µM, a growth at 0.01 µM (SN12C) of 85 to 90% and a GI50 (K562 [6]; read-out: GI50) of 0.0781 to 0.126 µM. The TGI (K562 [6]; read-out: TGI) was greater than 100 µM, the CC50 (K562 [6]; [8]) was greater than 100 µM and the TGI (K562 [6]; read-out: pTGI) was greater than 100 µM. For the same compound, the growth at 0.01 µM (MOLT-4) was 81 to 83%, the growth at 100 µM (K562 [7]) was 7 to 8% and the growth at 0.1 µM (T47D) was 31 to 50%. The GI50 (OVCAR-4; read-out: GI50) was 0.292 to 0.358 µM, the CC50 (OVCAR-4; [9]) was greater than 100 µM and the TGI (OVCAR-4; read-out: TGI) was 1.98 to 5.62 µM. The growth at 0.01 µM (MCF7) was 67 to 75%, the growth at 10 µM (MDA-MB-435) was -65% and the growth at 0.1 µM (SK-MEL-28) was 87 to 91%. It also gave a growth at 1 µM (786-0) of 9 to 11% and a growth at 0.1 µM (SF-295) of 66 to 77%.
